Test results taken from US20150072968A1, “Treating Infections with Ceftolozane/Tazobactam in Subjects Having Impaired Renal Function” (Calixa Therapeutics, Inc., priority 2013, published 2015).

Tests used:
[1] = system: Klebsiella pneumoniae (KPN); experiment: Baseline susceptibility testing of cUTI isolates, CLSI broth microdilution; type: cell-based
Protocol: (§1) 764 isolates of Gram-negative aerobic organisms were isolated from 800 patients in the microbiological modified intent-to-treat population (enrolled in 20 countries in Eastern Europe, North America, South America and 5 countries outside of these regions). Susceptibility (S) testing was performed with ceftolozane/tazobactam at a fixed 4 μg/mL of tazobactam and 10 antibiotic comparators using CLSI broth microdilution methods. ESBL enzymes were identified by PCR.

P. aeruginosa = experiment: as above; type: cell-based, Pseudomonas aeruginosa; conditions: comparators
Protocol: as §1

Pseudomonas aeruginosa = experiment: Phase 3 cUTI study, per pathogen microbiological eradication; type: in vivo; conditions: levofloxacin-resistant population, ME
Source text: (§2) The primary efficacy endpoint was the composite microbiological and clinical cure response at the test-of-cure (TOC) visit in the microbiologically modified intent-to-treat (mMITT) population, which included all patients who received study medication and had at least 1 baseline uropathogen. The key secondary efficacy endpoint was the composite microbiological and clinical cure response at the TOC visit in the microbiologically evaluable (ME) population, which included protocol-adherent mMITT patients with a urine culture at the TOC visit.

Escherichia coli = experiment: as above; type: in vivo; conditions: levofloxacin-resistant population, ME
Source text: as §2

Enterobacteriaceae = experiment: as above; type: in vivo; conditions: levofloxacin-resistant population, ME
Source text: as §2

Klebsiella pneumoniae = experiment: as above; type: in vivo; conditions: levofloxacin-resistant population, ME
Source text: as §2

[2] = human, in vivo, 7 days
gram-negative pathogens = experiment: Baseline susceptibility testing of cUTI isolates, CLSI broth microdilution; type: cell-based; conditions: mMITT population; ceftolozane/tazobactam breakpoint ≦8 mg/1, levofloxacin CLSI criteria
Protocol: as §1

E. coli = experiment: as above; type: cell-based, Escherichia coli
Protocol: as §1

[3] = system: complicated urinary tract infections (including pyelonephritis); experiment: Phase 3 study of complicated urinary tract infections, composite microbiological and clinical cure at TOC visit; type: in vivo, human; conditions: for Composite Cure Rate at TOC: levofloxacin-resistant population
Source text: as §2

CC(C)(O/N=C(\C(=O)N[C@@H]1C(=O)N2C(C(=O)[O-])=C(C[n+]3ccccc3)CS[C@H]12)c1csc(N)n1)C(=O)O [ceftazidime]
isolates inhibited at ≦8 μg/mL [1]: 58.2% | susceptibility of isolates (P. aeruginosa): 40.0%

C[C@H]1COc2c(N3CCN(C)CC3)c(F)cc3c(=O)c(C(=O)O)cn1c23 [Levofloxacin]
Per-pathogen Microbiological Eradication Rate at TOC (Pseudomonas aeruginosa): 37.5 (3/8) % | Per-pathogen Microbiological Eradication Rate at TOC (Escherichia coli): 44.1% | Per-pathogen Microbiological Eradication Rate at TOC (Enterobacteriaceae): 45.2% | Per-pathogen Microbiological Eradication Rate at TOC (Klebsiella pneumoniae): 30.0 (3/10) % | adverse event gastrointestinal symptoms [2]: 11.4% | adverse event headache [2]: 4.9% | incidence of treatment-limiting adverse events [2]: < 2% | patients with adverse events [2]: 34.4% | gram-negative pathogens isolated at baseline susceptible (gram-negative pathogens): 70.7% | MIC50 (E. coli; E. coli baseline isolates): 0.03 mg/1 | MIC90 (E. coli; E. coli baseline isolates): > 4 mg/1 | E. coli isolates susceptible (E. coli; mMITT population, regardless of ESBL phenotype): 74.1% | Composite microbiological and clinical cure rate at TOC visit ([3]; ME population): 266/353 (75.4) % | Composite Cure Rate at TOC ([3]; ME): 43.4% | Composite Cure Rate at TOC ([3]; mMITT): 39.3% | Composite microbiological and clinical cure rate at TOC visit ([3]; mMITT population): 275/402 (68.4) % | susceptibility of isolates (P. aeruginosa): 35.0%

CO/N=C(\C(=O)N[C@@H]1C(=O)N2C(C(=O)[O-])=C(C[N+]3(C)CCCC3)CS[C@H]12)c1csc(N)n1 [cefepime]
susceptibility of isolates (P. aeruginosa): 50.0%

C[C@@H](O)[C@H]1C(=O)N2C(C(=O)O)=C(SCCN=CN)C[C@H]12 [imipenem]
susceptibility of isolates (P. aeruginosa): 45.0%
